{
  "source": "paper PMC7083565",
  "about": "“In vitro metabolism, reaction phenotyping, enzyme kinetics, CYP inhibition and induction potential of ataluren” (Pharmacology Research & Perspectives, 2020)",
  "key": {"[1]": {"conditions": "DMD patients, oral 10, 10, 20 mg/kg/day (morning, mid-day and evening dose); read-out: mean Cmax at the steady state; cited from earlier work"}, "CYP2C9": {"target": "T1, CYP2C9 (Homo sapiens, UniProt P11712)", "T1 construct": "tissue XenoTech LLC, Celsis-In Vitro Technologies, or Tissue Transformation Technologies; host or cells: pooled human liver microsomes", "T1 sequence (P11712 whole entry)": "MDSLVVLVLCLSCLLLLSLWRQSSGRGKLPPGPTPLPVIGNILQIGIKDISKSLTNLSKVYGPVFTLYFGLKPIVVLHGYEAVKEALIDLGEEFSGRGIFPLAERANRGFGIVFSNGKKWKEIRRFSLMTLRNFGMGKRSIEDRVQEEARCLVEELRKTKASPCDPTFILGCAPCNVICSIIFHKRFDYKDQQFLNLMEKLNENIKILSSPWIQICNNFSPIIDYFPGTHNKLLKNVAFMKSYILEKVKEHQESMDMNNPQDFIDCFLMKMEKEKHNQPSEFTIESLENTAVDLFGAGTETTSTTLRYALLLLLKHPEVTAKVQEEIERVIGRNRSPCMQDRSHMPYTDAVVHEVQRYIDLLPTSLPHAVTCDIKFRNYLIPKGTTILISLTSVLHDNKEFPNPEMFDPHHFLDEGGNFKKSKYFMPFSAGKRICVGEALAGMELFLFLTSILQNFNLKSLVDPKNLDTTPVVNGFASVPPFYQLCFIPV", "test": "CYP inhibition in pooled human liver microsomes: CYP2C9", "type": "in vitro ADME", "procedure": "The final concentration of each probe substrate was near the experimentally determined Km value for the indicated enzyme. Ataluren or prototypical CYP inhibitors (positive controls) was incubated (n = 3) with probe substrates and HLM in 100 mmol/L phosphate buffer (pH 7.4) in a total volume of approximately 0.25 mL, and the reactions were initiated by the addition of 1 mmol/L NADPH at 37°C. The reactions were carried out using previously established conditions to ensure linearity with respect to protein concentration and incubation time (Table S1). Incubations were stopped with the addition of ice‐cold acetonitrile. Metabolite formation in incubations with test compound and control inhibitors was assessed with LC‐MS/MS methods for each of the reaction products as described in Table S2. […] After 7 minutes incubation at 37°C, the reaction was stopped by the addition of ice‐cold acetonitrile, followed by membrane plate filtration. The filtrates were used for LC‐MS/MS analysis. Enzyme activity remaining at each nonzero ataluren concentration after incubation was normalized against control sample (zero ataluren concentration, enzyme activity = 100%), and the % remaining enzyme activity values were used for IC50 calculation. IC50 values were determined by nonlinear regression with GraphPad Prism 5 using the following four‐parameter sigmoidal‐logistic IC50 equation: Fit=background+range-background/[1+I/IC50^slope]\nWhere, I is the inhibitor concentration, and background was set to 0 and range to 100, as percent of control values are utilized. K i was determined by nonlinear regression with GraphPad Prism 5 using best fit model."}, "[2]": {"test": "Ataluren glucuronidation kinetics, human intestinal microsomes", "type": "in vitro ADME", "conditions": "for CLint,u,UGT (scaled) / K m / K m, u / V max: HIM; for CLint,u,UGT (scaled): 20.6 mg protein/g tissue; for K m / K m, u / V max: mean ± SE; for K m / K m, u / V max / fraction unbound at 15 min: n = 3; for fraction unbound at 15 min / microsomal CLint: human, pH 7.5, HIM; for fraction unbound at 15 min: pooled human intestinal microsomes incubation mixture, mean ± SD, read-out: fu,inc; for microsomal CLint: pooled human intestinal microsomes, read-out: CLint,u,UGT", "procedure": "Ataluren at 0.5, 2.5, 12.5, 25, 50, 100, 200, and 400 µmol/L, was incubated (n = 3) at 37°C with recombinant human UGT1A9 and with pooled microsomes from human liver, kidney, and intestine (0.025 mg protein/mL, preactivated with alamethicin at 20 µg/mL) in Tris‐HCl buffer (0.1 mol/L, pH 7.5), in the presence of 1 mmol/L EDTA, 5 mmol/L MgCl2, with or without 0.5%, 1%, or 2% BSA. The incubation (100 µL final volume with 0.5% DMSO) was started by adding an equal volume of UDPGA (5 mmol/L) in Tris‐HCl buffer (0.1 mol/L, pH 7.5). After 30 minutes incubation, the incubation mixtures were combined with 0.3 mL of an internal standard solution in acetonitrile with 1% formic acid, followed by membrane plate filtration. The filtrates were used for LC‐MS/MS analysis to quantify the formation of ataluren‐O‐1β‐acyl glucuronide. Detailed LC‐MS/MS conditions are summarized in LC‐MS/MS Analysis section. Ataluren acyl glucuronide formation rate after 30 minutes incubation was calculated using the amount of metabolite formed (pmol) divided by the protein amount in the incubation sample (0.0025 mg) and the incubation time (30 minutes). Ataluren glucuronidation kinetic parameters were determined with and without adjusting BSA binding by nonlinear regression (GraphPad Prism, 5version 5.04, GraphPad Software, Inc.) using Michaelis‐Menten equation which was the best fit compared with other models. The intrinsic clearance was calculated as CLint = Vmax/Km. In order to compare unbound intrinsic clearance by glucuronidation (CLint,u,UGT) in different tissues, CLint,u,UGT was expressed per gram of tissue by correcting the values for the microsomal protein yield, resulting in scaled CLint,u,UGT. Microsomal protein yields of 40.0, 12.8, and 20.6 mg protein/g tissue were used for hepatic, renal, and intestinal data, respectively. ^26\nThe high‐throughput membrane ultrafiltration method ^27 was used to determine the fraction unbound in the incubation (n = 3). Incubation mixtures and procedures were essentially the same as the above except that UDPGA (5 mmol/L) was replaced with Tris‐HCl buffer (0.1 mol/L, pH 7.5). After 15 minutes incubation, aliquot was transferred to a Millipore Multiscreen Ultracel‐10 filter plate (10 kDa molecular mass cut off; EMD Millipore). The plate was centrifuged at 37°C and 3710 g. After 30 minutes centrifugation, aliquots of ultrafiltrates and incubation mixtures prior to ultrafiltration were quenched with an internal standard solution in acetonitrile, followed by membrane plate filtration. The filtrates were used for LC‐MS/MS analysis to quantify the concentration of ataluren. The same LC‐MS/MS conditions described above are summarized in LC‐MS/MS Analysis section. The free fraction = Cu/Cm, where Cu is the concentration of ataluren in the ultrafiltrate and Cm is the concentration of ataluren in the incubation system before centrifugation. Unbound Km (Km, u) was recalculated by applying Michaelis‐Menten equation using free ataluren concentrations after correcting BSA binding at each ataluren and BSA concentration level.\nQuantification of ataluren‐O‐1β‐acyl glucuronide formation was conducted on an Accela pump and a PAL autosampler equipped with a TSQ Quantum Ultra mass spectrometer (Thermo Fisher Scientific). A Waters Acquity BEH column (C18, 1.7 µm, 50 × 2.1 mm; Waters Cooperation) was used and maintained at 50°C. The mobile phases were 0.1% formic acid in water (A) and acetonitrile (B). The flow rate was 0.6 mL/min and gradient program was as follows: linear gradient from 0% B to 95% B in 0.5 minutes and hold isocratic at 95% B for 1 minute; linear gradient from 95% B to 0% B in 0.1 minutes and hold isocratic at 0% B for 0.4 minutes. TSQ Quantum Ultra mass spectrometer was equipped with a heated electrospray ionization source operated in negative‐ion mode with a vaporizer temperature of 350°C, capillary temperature of 380°C, and spray voltage of 3 kV. […]"}},
  "note": "Where two headings read alike, the source gives them in different places.",
  "data": [
    {"smiles": "O=C(O)c1cccc(-c2noc(-c3ccccc3F)n2)c1", "note": "[ataluren, Ataluren]", "values": [
      {"measurement": "Cmax", "setting": "[1]", "value": "~79.9", "unit": "µM"},
      {"measurement": "Ki", "setting": "CYP2C9; CYP2C9, competitive, mean ± SE, n = 3", "value": "75.4 ± 4.42", "unit": "µM"},
      {"measurement": "mechanism of inhibition", "setting": "CYP2C9; CYP2C9, tolbutamide methyl hydroxylase", "value": "competitive inhibitor"},
      {"measurement": "IC50", "setting": "CYP2C9; Diclofenac 4′-hydroxylase, pooled HLM, n=3, (95% confidence interval)", "value": 135, "unit": "µM"},
      {"measurement": "IC50", "setting": "CYP2C9; human, pooled human liver microsomes, pH 7.4, CYP2C9, HLM", "value": 134, "unit": "µM"},
      {"measurement": "CLint,u,UGT (scaled)", "setting": "[2]; 0% BSA", "value": "0.974 mL/min/g of tissue"},
      {"measurement": "K m", "setting": "[2]; 0% BSA", "value": "15.8 ± 3.35", "unit": "µM"},
      {"measurement": "K m, u", "setting": "[2]; 0% BSA", "value": "15.8 ± 3.10", "unit": "µM"},
      {"measurement": "V max", "setting": "[2]; 0% BSA", "value": "747 ± 32.7", "unit": "pmol/min/mg"},
      {"measurement": "CLint,u,UGT (scaled)", "setting": "[2]; 0.5% BSA", "value": "3.38 mL/min/g of tissue"},
      {"measurement": "K m", "setting": "[2]; 0.5% BSA", "value": "43.8 ± 6.88", "unit": "µM"},
      {"measurement": "K m, u", "setting": "[2]; 0.5% BSA", "value": "4.03 ± 0.646", "unit": "µM"},
      {"measurement": "V max", "setting": "[2]; 0.5% BSA", "value": "660 ± 28.3", "unit": "pmol/min/mg"},
      {"measurement": "CLint,u,UGT (scaled)", "setting": "[2]; 1% BSA", "value": "3.64 mL/min/g of tissue"},
      {"measurement": "K m", "setting": "[2]; 1% BSA", "value": "82.4 ± 11.3", "unit": "µM"},
      {"measurement": "K m, u", "setting": "[2]; 1% BSA", "value": "4.02 ± 0.544", "unit": "µM"},
      {"measurement": "V max", "setting": "[2]; 1% BSA", "value": "711 ± 31.2", "unit": "pmol/min/mg"},
      {"measurement": "CLint,u,UGT (scaled)", "setting": "[2]; 2% BSA", "value": "3.39 mL/min/g of tissue"},
      {"measurement": "K m", "setting": "[2]; 2% BSA", "value": "145 ± 22.0", "unit": "µM"},
      {"measurement": "K m, u", "setting": "[2]; 2% BSA", "value": "4.74 ± 0.835", "unit": "µM"},
      {"measurement": "V max", "setting": "[2]; 2% BSA", "value": "767 ± 54.6", "unit": "pmol/min/mg"},
      {"measurement": "maximal effect of BSA on CLint,u (increase)", "setting": "[2]; human intestine microsomes, with vs without BSA", "value": "~3.7", "unit": "fold"},
      {"measurement": "fraction unbound at 15 min", "setting": "[2]; 0% BSA", "value": "1 ± 0.137"},
      {"measurement": "fraction unbound at 15 min", "setting": "[2]; 0.5% BSA", "value": "0.1 ± 0.0021"},
      {"measurement": "fraction unbound at 15 min", "setting": "[2]; 1% BSA", "value": "0.056 ± 0.002"},
      {"measurement": "fraction unbound at 15 min", "setting": "[2]; 2% BSA", "value": "0.036 ± 0.002"},
      {"measurement": "microsomal CLint", "setting": "[2]; 0% BSA", "value": 47.3, "unit": "µL/min/mg"},
      {"measurement": "microsomal CLint", "setting": "[2]; 0.5% BSA", "value": 164, "unit": "µL/min/mg"},
      {"measurement": "microsomal CLint", "setting": "[2]; 1% BSA", "value": 177, "unit": "µL/min/mg"},
      {"measurement": "microsomal CLint", "setting": "[2]; 2% BSA", "value": 164, "unit": "µL/min/mg"}
    ]}
  ]
}
